Laboratory results published in patent publication US4051237A, “Glycopeptide antibiotics Bu-2231 A and B and process for producing same” (priority 1975, dated 1977).
Like-named read-outs stand apart in the source and are kept apart here.

Key:
Lewis Lung carcinoma = settings: for Effect MST %T/C / MST Days / Survivors Day 5: Exp. #55; for Survivors Day 5: toxicity evaluation
[1] = tested on: Bacillus subtilis PCI-219; test: Paper disc-agar diffusion method
[2] = tested on: Walker 256 carcinosarcoma in ascitic form; settings: for Effect MST %T/C / MST Days / Survivors Day 5 / Average Weight Change: Exp. #5501; for MST Days: Bu-2231 A and B as copper-free formate salts; for Survivors Day 5: toxicity evaluation; for Average Weight Change: recorded Day 5; for fold greater potency (vs bleomycin): Table II, copper-free formate salts;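 for all read-outs here: female SD rats bearing intraperitoneally implanted ascites tumor cells, treated ip once a day for 8 days beginning on Day 1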
[3] = mice, sc, up to a dose of 50 mg./kg.
Description: The acute toxicity of copper-free Bu-2231 A and B was determined in mice by a single subcutaneous injection. Groups of 3 mice were used for each dose level and the body weight was recorded for 16 days.

[4] = 0.5 mg/kg/day ip once daily for 9 days
[5] = 1 mg/kg/day ip once daily for 9 days
[6] = 2 mg/kg/day ip once daily for 9 days
[7] = 4 mg/kg/day ip once daily for 9 days
[8] = 8 mg/kg/day ip once daily for 9 days
[9] = 10 mcg/kg/day ip once daily for 8 days
[10] = 40 mcg/kg/day ip once daily for 8 days
[11] = 160 mcg/kg/day ip once daily for 8 days
[12] = 640 mcg/kg/day ip once daily for 8 days

SMILES | Effect MST %T/C (Lewis Lung carcinoma; [4]) [%] | MST Days (Lewis Lung carcinoma; [4]) [days] | Survivors Day 5 (Lewis Lung carcinoma; 0.5 mg/kg/day) | Effect MST %T/C (Lewis Lung carcinoma; [5]) [%] | MST Days (Lewis Lung carcinoma; [5]) [days] | Survivors Day 5 (Lewis Lung carcinoma; 1 mg/kg/day) | Effect MST %T/C (Lewis Lung carcinoma; [6]) [%] | MST Days (Lewis Lung carcinoma; [6]) [days] | Survivors Day 5 (Lewis Lung carcinoma; 2 mg/kg/day) | Effect MST %T/C (Lewis Lung carcinoma; [7]) [%] | MST Days (Lewis Lung carcinoma; [7]) [days] | Survivors Day 5 (Lewis Lung carcinoma; 4 mg/kg/day) | Effect MST %T/C (Lewis Lung carcinoma; [8]) [%] | MST Days (Lewis Lung carcinoma; [8]) [days] | Survivors Day 5 (Lewis Lung carcinoma; 8 mg/kg/day) | activity against B. subtilis PCI-219 [1] | Effect MST %T/C [2, 9] [%] | MST Days [2, 9] [days] | Survivors Day 5 ([2]; 10 mcg/kg/day) | Effect MST %T/C [2, 10] [%] | further results
Cc1c(N)nc([C@H](CC(N)=O)NC[C@H](N)C(N)=O)nc1C(=O)N[C@H](C(=O)N[C@H](C)[C@@H](O)CC(=O)N[C@H](C(=O)NC(O[C@@H]1O[C@@H](C)[C@@H](N)[C@@H](O)[C@H]1O)C(O)c1nc(-c2nc(C(=O)NCCCC(N)CC(=O)NCCCNCCCCN)cs2)cs1)[C@@H](C)O)[C@H](O[C@@H]1O[C@@H](CO)[C@@H](O)[C@H](O)[C@@H]1O[C@H]1O[C@H](CO)[C@@H](O)[C@H](OC(N)=O)[C@@H]1O)c1c[nH]cn1 (stereo partly shown) [Bu-2231 A] | 120 | 26.5 | 6/6 | 123 | 27.0 | 6/6 | 114 | 25.0 | 6/6 | 32 | 7.0 | 6/6 | 27 | 6.0 | 6/6 | active | 129 | 9.0 | 6/6 | 157 | activity against Lewis Lung Carcinoma (T/C >= 125 criterion) (Lewis Lung carcinoma; 1 mg./kg.): just below an active level; MST Days [2, 10]: 11.0 days; Survivors Day 5 ([2]; 40 mcg/kg/day): 6/6; Effect MST %T/C [2, 11]: 179%; MST Days [2, 11]: 12.5 days; Average Weight Change ([2]; 160 mcg/kg/day): +28.8 g.; Survivors Day 5 ([2]; 160 mcg/kg/day): 6/6; Effect MST %T/C [2, 12]: 250%; MST Days [2, 12]: 17.5 days; Survivors Day 5 ([2]; 640 mcg/kg/day): 6/6; fold greater potency (vs bleomycin) [2]: 4 fold; solubility (ethanol): slightly soluble; solubility (methanol): soluble; solubility (other organic solvents): practically insoluble; solubility (water): soluble
Cc1c(N)nc([C@H](CC(N)=O)NC[C@@H](N)C(N)=O)nc1C(=O)N[C@H](C(=O)N[C@H](C)[C@@H](O)CC(=O)N[C@@H](C(=O)NC(O[C@@H]1O[C@@H](C)[C@@H](N)[C@@H](O)[C@H]1O)C(O)c1nc(-c2nc(C(=O)NCCCNCCCCN)cs2)cs1)[C@@H](C)O)C(O[C@@H]1O[C@@H](CO)[C@H](O)[C@@H](O)[C@@H]1O[C@H]1O[C@H](CO)[C@@H](O)[C@@H](OC(N)=O)[C@@H]1O)c1cnc[nH]1 (stereo partly shown) [Bu-2231 B] | 102 | 22.5 | 6/6 | 134 | 29.5 | 6/6 | 136 | 30.0 | 6/6 | 48 | 10.5 | 6/6 | 27 | 6.0 | 5/6 | active | 114 | 8.0 | 6/6 | 157 | activity against Lewis Lung Carcinoma (T/C >= 125 criterion) (Lewis Lung carcinoma; doses of 2 and 1 mg./kg.): active; death in acute toxicity test [3]: No death occurred; Average Weight Change ([2]; 10 mcg/kg/day): +36.5 g.; MST Days [2, 10]: 11.0 days; Survivors Day 5 ([2]; 40 mcg/kg/day): 6/6; Effect MST %T/C [2, 11]: 186%; MST Days [2, 11]: 13.0 days; Average Weight Change ([2]; 160 mcg/kg/day): +36.5 g.; Survivors Day 5 ([2]; 160 mcg/kg/day): 6/6; Effect MST %T/C [2, 12]: 186%; MST Days [2, 12]: 13.0 days; Average Weight Change ([2]; 640 mcg/kg/day): +10.7 g.; Survivors Day 5 ([2]; 640 mcg/kg/day): 6/6; fold greater potency (vs bleomycin) [2]: 4 fold; solubility (ethanol): slightly soluble; solubility (methanol): soluble; solubility (other organic solvents): practically insoluble; solubility (water): soluble
